From BigSolDB 2.1

Cc1ncc(CO)c(CO)c1O.Cl
solubility (mole fraction)
Conditions | 278.15 K | 283.15 K | 288.15 K | 293.15 K | 298.15 K | 303.15 K | 308.15 K | 313.15 K
in ethanol | 0.000447 | 0.000484 | 0.000557 | 0.000651 | 0.000801 | 0.000989 | 0.00118 | 0.00143
in methanol | 0.00221 | 0.00253 | 0.0028 | 0.00329 | 0.00373 | 0.00425 | 0.00486 | 0.00549
in water | 0.0105 | 0.0123 | 0.0144 | 0.0168 | 0.0191 | 0.022 | 0.025 | 0.0286
